Counter-ions that a name gives are not always drawn.
Target: Glycogen synthase kinase-3 beta (Homo sapiens, UniProt P49841)
Assay: concentration-response blocking of human GSK3B – biochemical, luminescence, cell-free homogeneous, retest, dose response (AID 434954)

Glycogen synthase kinase-3 beta, sequence (P49841 whole entry): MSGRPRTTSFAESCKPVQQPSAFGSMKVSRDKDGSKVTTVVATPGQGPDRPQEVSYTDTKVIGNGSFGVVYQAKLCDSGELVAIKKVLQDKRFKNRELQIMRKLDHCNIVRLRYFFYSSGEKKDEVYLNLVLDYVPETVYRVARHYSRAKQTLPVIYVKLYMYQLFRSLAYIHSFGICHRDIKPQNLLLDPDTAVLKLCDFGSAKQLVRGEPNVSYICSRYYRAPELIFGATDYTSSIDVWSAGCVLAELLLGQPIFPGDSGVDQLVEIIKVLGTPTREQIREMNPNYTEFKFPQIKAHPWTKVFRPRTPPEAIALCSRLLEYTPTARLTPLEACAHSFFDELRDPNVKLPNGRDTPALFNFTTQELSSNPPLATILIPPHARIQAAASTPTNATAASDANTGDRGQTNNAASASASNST

SMILES | EC50 [µM]
CCC(=O)Nc1sc2c(c1C(N)=O)CCN(C(C)=O)C2 [6-acetyl-2-(1-oxopropylamino)-5,7-dihydro-4H-thieno[2,3-c]pyridine-3-carboxamide] | 13.8
CCCN(CCC)Cc1c(C(=O)NN=Cc2ccncc2)nnn1-c1nonc1N [1-(4-amino-1,2,5-oxadiazol-3-yl)-5-[(dipropylamino)methyl]-N-(pyridin-4-ylmethylideneamino)triazole-4-carboxamide] | 0.879
c1ccc(Nc2nc(-c3ccncc3)nc3ccccc23)cc1 | 22
CCOc1ccccc1NC(=O)CSc1nnc(C2CC2)n1CC [2-[(5-cyclopropyl-4-ethyl-1,2,4-triazol-3-yl)thio]-N-(2-ethoxyphenyl)acetamide] | > 300
S=c1[nH]c(-c2ccccc2)cn1N=Cc1ccncc1 | 140
Cc1[nH]nc2c1C(c1cccs1)C1C(=O)CC(C)(C)CC1=N2 (configuration not stated) [3,7,7-trimethyl-4-thiophen-2-yl-2,4,6,8-tetrahydro-1H-pyrazolo[3,4-b]quinolin-5-one] | 1.36
Cc1ccc([N+](=O)[O-])cc1/N=C1\C(=O)Nc2ccccc21 | > 300
N=C(N)N/N=C1/C(=O)Nc2ccc(Br)cc21 [2-[(5-bromo-2-oxo-3-indolyl)amino]guanidine;hydrochloride] | 31.4
Cc1c([N+](=O)[O-])c2ccc(O)cc2n1-c1ccccc1 [2-methyl-3-nitro-1-phenylindol-6-ol] | 2.14
COc1ccccc1-c1nc(C(=O)NCC2CCCO2)cc2c1[nH]c1ccccc12 (configuration not stated) [1-(2-methoxyphenyl)-N-(oxolan-2-ylmethyl)-9H-pyrido[3,4-b]indole-3-carboxamide] | > 300
CC(C)OCCCN1CN(S(=O)(=O)c2cccc(Cl)c2)c2nc3ccccc3nc21 [1-(3-Chloro-benzenesulfonyl)-3-(3-isopropoxy-propyl)-2,3-dihydro-1H-imidazo[4,5-b]quinoxaline] | > 300
Cc1ccc(S(=O)(=O)NN=Cc2cn(-c3ccccc3)nc2-c2ccccc2)cc1 [N-[(1,3-diphenylpyrazol-4-yl)methylideneamino]-4-methylbenzenesulfonamide] | > 300
CC1(C)N=C(N)N=C(N)N1c1ccc(Oc2ccc(Cl)cc2)c(Cl)c1 [1-[3-chloro-4-(4-chlorophenoxy)phenyl]-6,6-dimethyl-1,3,5-triazine-2,4-diamine;hydrochloride] | > 300
CSc1nc(SCC(N)=O)c2c3c(sc2n1)CN(C)CC3 | 5.08
COc1ccc(-c2cn3c(C)c(C(=O)Nc4ccncc4)sc3n2)cc1 [6-(4-methoxyphenyl)-3-methyl-N-(4-pyridyl)imidazo[2,1-b]thiazole-2-carboxamide] | > 300
Cc1n[nH]c2c1[C@@H](c1ccccc1[N+](=O)[O-])C(C#N)C(=N)O2 (stereo partly drawn) [(4S)-6-azanyl-3-methyl-4-(2-nitrophenyl)-2,4-dihydropyrano[2,3-c]pyrazole-5-carbonitrile] | 9.65
Cc1ccc2c(c1)C1CN(C)CCC1N2C(=O)Nc1cccc(Cl)c1 (configuration not stated) [MLS000565326] | > 300
c1ccc2c(c1)oc1c(NCCCn3ccnc3)ncnc12 | > 300
CC(C)N1CCc2c(sc(NC(=O)CCS(=O)(=O)c3ccccc3)c2C(N)=O)C1 [2-[[3-(benzenesulfonyl)-1-oxopropyl]amino]-6-propan-2-yl-5,7-dihydro-4H-thieno[2,3-c]pyridine-3-carboxamide;hydrochloride] | > 300

SMILES | EC50 [µM]
Cc1ccc(N2CC(C(=O)Nc3c4c(nn3C(C)(C)C)CS(=O)(=O)C4)CC2=O)cc1 (configuration not stated) [N-[2-tert-butyl-5,5-bis(oxidanylidene)-4,6-dihydrothieno[3,4-c]pyrazol-3-yl]-1-(4-methylphenyl)-5-oxidanylidene-pyrrolidine-3-carboxamide] | > 300
CCOc1cc(C2C(C(=O)N3CCCCC3)=C(C)N=C3CC(C)(C)CC(=O)C32)ccc1O (configuration not stated) [4-(3-ethoxy-4-hydroxyphenyl)-2,7,7-trimethyl-3-[oxo(1-piperidinyl)methyl]-1,4,6,8-tetrahydroquinolin-5-one] | > 300
O=C(c1cccnc1)C1CCCN(Cc2nc(Cc3ccccc3)no2)C1 (configuration not stated) [[1-[[3-(phenylmethyl)-1,2,4-oxadiazol-5-yl]methyl]-3-piperidinyl]-(3-pyridinyl)methanone] | > 300
Cc1ccc(-c2nnc3ccc(SC(C)C(=O)O)nn23)cc1 (configuration not stated) [2-[[3-(4-methylphenyl)-[1,2,4]triazolo[4,3-b]pyridazin-6-yl]sulfanyl]propanoic acid] | 34.2
Cc1c(C(=O)O)sc2ncnc(N3CCCCC3C)c12 (configuration not stated) [5-methyl-4-(2-methyl-1-piperidinyl)thieno[2,3-d]pyrimidine-6-carboxylic acid] | > 300
Oc1ccccc1CN=Nc1nnn[nH]1 [(6E)-6-[(2H-tetrazol-5-ylhydrazo)methylidene]-1-cyclohexa-2,4-dienone] | > 300
CCN(CC)Cc1c(C(=O)N/N=C/c2ccncc2)nnn1-c1nonc1N | 0.177
Nn1c(SCc2cccc(Br)c2)nnc1-c1ccncc1 [3-(3-Bromo-benzylsulfanyl)-5-pyridin-4-yl-[1,2,4]triazol-4-ylamine] | > 300
CCOC(=O)c1nnn(-c2nc(OC)nc(N3CCCC3)n2)c1-c1ccccc1 | > 300
O=C(O)c1cc(-c2ccc(CN=Nc3ccc(Cl)cc3)o2)ccc1Cl [2-chloro-5-{5-[2-(4-chlorophenyl)carbonohydrazonoyl]-2-furyl}benzoic acid] | > 300
c1ccc(-n2cnnc2SCc2cn3cccnc3n2)cc1 [2-(4-Phenyl-4H-[1,2,4]triazol-3-ylsulfanylmethyl)-imidazo[1,2-a]pyrimidine] | > 300
Clc1cccc(CNc2nc(-c3cccnc3)nc3ccccc23)c1 [N-[(3-chlorophenyl)methyl]-2-(3-pyridinyl)-4-quinazolinamine] | > 300
O=C(CN1C(=O)c2ccccc2C1=O)Nc1ccccc1F [2-[1,3-bis(oxidanylidene)isoindol-2-yl]-N-(2-fluorophenyl)ethanamide] | > 300
Cc1ncsc1CCSc1nc2ccccc2c(=O)n1C [3-methyl-2-{[2-(4-methyl-1,3-thiazol-5-yl)ethyl]thio}-4(3H)-quinazolinone] | 18.8
COC(=O)c1sccc1NC(=O)c1ccc(Br)s1 [3-[(5-bromothiophene-2-carbonyl)amino]thiophene-2-carboxylic acid methyl ester] | > 300
O=C(Nc1ccc2c(c1)OCO2)Nc1ccc(F)cc1F | > 300
O=C1N=C(NS(=O)(=O)Cc2ccccc2)S/C1=C/c1ccc2c(c1)OCO2 [N-[5-[1-Benzo[1,3]dioxol-5-yl-meth-(E)-ylidene]-4-oxo-thiazolidin-(2E)-ylidene]-C-phenyl-methanesulfon amide] | 18.8
COCCn1c(SCC(=O)Nc2cccc(S(N)(=O)=O)c2)nc2ccccc21 [2-[1-(2-methoxyethyl)benzimidazol-2-yl]sulfanyl-N-(3-sulfamoylphenyl)ethanamide] | > 300
Cc1ccc2nc(-c3ccccc3)cn2c1 [6-methyl-2-phenyl-imidazo[1,2-a]pyridine;hydrobromide] | 29

Second part, the molecule after the results:

EC50 [µM] | SMILES
> 300 | Cc1nc2nc(=O)c3c(n2[nH]1)NC1=C(C(=O)CC(C)(C)C1)C3c1ccc(F)cc1 (configuration not stated) [MLS000084336]
> 300 | CCCN(CCC)c1nc(N)nc(-c2cc(Cl)ccc2OC)n1 [MLS000538209]
> 300 | CN1CCc2c(sc3c2c(=O)n(-c2ccc(Cl)cc2)c2nncn32)C1 [SMR000042939]
13.6 | O=[N+]([O-])c1c(-c2cn[nH]c2)n[nH]c1-c1cn[nH]c1 [SMR000289595]
> 300 | CN(CCO)S(=O)(=O)c1ccc2c(c1)C(=NNC(N)=O)c1cc(S(=O)(=O)N(C)CCO)ccc1-2 [MLS000766695]
> 300 | O=[N+]([O-])c1ccccc1Oc1ccc(Cl)c2cccnc12 [MLS000721853]
> 300 | CCN(CC)Cc1c(C(=O)OC)nnn1-c1nonc1N [MLS000085717]
> 300 | COC(CNc1nc(SC)nc2sc3c(c12)CCN(C)C3)OC [MLS001215082]
> 300 | CC(C)C(=O)NC(=S)Nc1ccc(S(=O)(=O)N2CCCC2)cc1 [SMR000231524]
> 300 | CCOc1ccccc1Nc1cc(C)nc2ccc(C)cc12 [SMR000473096]
> 300 | O=C(c1ccc(Cl)nc1)N1CCN(C/C=C/c2ccccc2)CC1 [SMR000352615]
15.1 | N#Cc1ccc(CSc2nnc(-c3ccncc3)o2)cc1 [MLS000687325]
0.0951 | COc1ccc2nc3c(cc2c1)c(NC(=O)c1cccs1)nn3CC(C)C [MLS000041975]
> 300 | CCN1CCN(c2nc(Nc3cc(OC)ccc3OC)nc(Nc3cc(OC)ccc3OC)n2)CC1 [SMR000439674]
22.5 | COc1cccc(CSc2nnc(-c3ccc(F)cc3)o2)c1 [MLS000077100]
> 300 | CC(C)c1ccc(C=NNC(=O)c2nnn(-c3nonc3N)c2CN2CCOCC2)cc1 [SMR000646507]
> 300 | CCCCc1cc(=O)oc2cc(C)cc(OC(C)C(=O)O)c12 (configuration not stated) [SMR000043773]
> 300 | CSc1nnc2ccc(-c3cccs3)nn12 [SMR000324231]
> 300 | Cc1nn(-c2ccccc2)c(Cl)c1C(=O)NCc1cccs1 [MLS000394567]
> 300 | Cc1nc(N2CCOCC2)nc(N2CCCCC2C)c1[N+](=O)[O-] (configuration not stated) [MLS001012395]
> 300 | O=C(Nc1ccc(-c2nc3ccccc3o2)cc1)c1ccc(N2CCOCC2)c([N+](=O)[O-])c1 [SMR000201361]
13.5 | CC(C)CNc1nc(N)c([N+](=O)[O-])c(NC2CCCCC2)n1 [MLS001213331]
> 300 | O=C1N=C(Nc2ccc(O)cc2)SC1=Cc1ccco1 [SMR000298037]
> 300 | O=C(NCC(c1ccco1)N1CCOCC1)c1cccc(Cl)c1 (configuration not stated) [SMR000808258]
25.3 | Clc1ccc2[nH]c3c(c2c1)CCc1c[nH]nc1-3 [MLS000108710]
> 300 | COC(CSc1nc(N)c2c3c(sc2n1)CN(C)CC3)OC [SMR000543145]
> 300 | CC1(C)CC(=O)C=C(Nc2ccccc2F)C1 [SMR000105669]
> 300 | Cc1nn(Cc2ccc(Cl)c(Cl)c2)c(C)c1NC(=O)c1noc2c1CCCCC2 [SMR000023628]
> 300 | CC(=O)Nc1ccc(Cc2nc3c([nH]2)c(=O)n(C)c(=O)n3C)cc1 [SMR000528148]

Reference: BindingDB's records for doi:10.7270/Q2TX3CTT (Broad Institute, 2010)
